Test results taken from ChEMBL document CHEMBL1201862, “PubChem BioAssay data set” (2004).
Calls of active or inactive are those of the source.

Columns and labels:
[1] = system: BJ; assay: BJ-TERT-LT-ST fibroblast viability loss – cell-based, RAS-independent, luminescence, dose response (AID 1935); format: functional; settings: Homo sapiens;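 further: BJ fibroblasts immortalized with TERT plus LT and ST oncogenes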
[2] = DRD fibroblast viability loss – cell-based, non-viral oncogenic, luminescence, dose response (AID 1934); format: functional; settings: Homo sapiens
[3] = system: BJ; assay: cells; format: functional, cell-based; settings: Homo sapiens
[4] = system: BJ; assay: BJ-TERT fibroblast viability loss – cell-based, RAS-independent, luminescence, dose response (AID 1933); format: functional; settings: Homo sapiens
[5] = target: T1, Short transient receptor potential channel 4 (Mus musculus, UniProt Q9QUQ5); assay: block of DAMGO-driven TRPC4 calcium entry – cell-based, HEK293 TRPC4/mu-opioid, Fluo-4 calcium, dose response (AID 434942); format: functional;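 further: potency of inhibitors blocking the TRPC4 calcium response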
T1 sequence (Q9QUQ5 whole entry): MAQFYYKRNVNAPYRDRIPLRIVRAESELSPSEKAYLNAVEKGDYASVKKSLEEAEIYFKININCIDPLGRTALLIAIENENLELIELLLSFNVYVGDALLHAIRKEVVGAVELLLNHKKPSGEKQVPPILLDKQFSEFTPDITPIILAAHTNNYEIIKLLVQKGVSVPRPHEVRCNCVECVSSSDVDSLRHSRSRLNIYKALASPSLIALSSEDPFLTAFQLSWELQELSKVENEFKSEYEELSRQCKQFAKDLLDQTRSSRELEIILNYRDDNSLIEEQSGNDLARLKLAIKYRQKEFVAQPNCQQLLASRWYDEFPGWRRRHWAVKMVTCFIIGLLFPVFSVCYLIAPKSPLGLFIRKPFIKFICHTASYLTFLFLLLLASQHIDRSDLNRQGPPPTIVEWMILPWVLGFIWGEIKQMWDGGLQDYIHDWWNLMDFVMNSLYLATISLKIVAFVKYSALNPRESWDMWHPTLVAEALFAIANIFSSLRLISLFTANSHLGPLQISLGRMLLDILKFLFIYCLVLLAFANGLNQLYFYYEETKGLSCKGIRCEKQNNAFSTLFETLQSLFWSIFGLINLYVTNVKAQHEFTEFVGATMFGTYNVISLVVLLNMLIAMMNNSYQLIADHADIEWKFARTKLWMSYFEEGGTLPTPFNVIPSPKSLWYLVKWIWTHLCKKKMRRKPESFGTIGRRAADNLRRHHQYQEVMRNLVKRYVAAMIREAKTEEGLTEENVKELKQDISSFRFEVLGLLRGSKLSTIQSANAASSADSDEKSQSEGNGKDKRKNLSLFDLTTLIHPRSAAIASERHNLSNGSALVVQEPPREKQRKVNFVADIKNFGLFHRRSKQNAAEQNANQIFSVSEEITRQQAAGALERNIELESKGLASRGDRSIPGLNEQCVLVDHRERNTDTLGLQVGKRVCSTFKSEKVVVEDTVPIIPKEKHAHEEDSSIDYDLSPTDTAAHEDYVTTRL

[6] = target: T2, Coagulation factor XII (Homo sapiens, UniProt P00748); format: functional;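 further: activated factor XIIa alpha cleaving a fluorogenic AMC peptide substrate; inhibitor potency from loss of enzyme activity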
T2 sequence (P00748 whole entry): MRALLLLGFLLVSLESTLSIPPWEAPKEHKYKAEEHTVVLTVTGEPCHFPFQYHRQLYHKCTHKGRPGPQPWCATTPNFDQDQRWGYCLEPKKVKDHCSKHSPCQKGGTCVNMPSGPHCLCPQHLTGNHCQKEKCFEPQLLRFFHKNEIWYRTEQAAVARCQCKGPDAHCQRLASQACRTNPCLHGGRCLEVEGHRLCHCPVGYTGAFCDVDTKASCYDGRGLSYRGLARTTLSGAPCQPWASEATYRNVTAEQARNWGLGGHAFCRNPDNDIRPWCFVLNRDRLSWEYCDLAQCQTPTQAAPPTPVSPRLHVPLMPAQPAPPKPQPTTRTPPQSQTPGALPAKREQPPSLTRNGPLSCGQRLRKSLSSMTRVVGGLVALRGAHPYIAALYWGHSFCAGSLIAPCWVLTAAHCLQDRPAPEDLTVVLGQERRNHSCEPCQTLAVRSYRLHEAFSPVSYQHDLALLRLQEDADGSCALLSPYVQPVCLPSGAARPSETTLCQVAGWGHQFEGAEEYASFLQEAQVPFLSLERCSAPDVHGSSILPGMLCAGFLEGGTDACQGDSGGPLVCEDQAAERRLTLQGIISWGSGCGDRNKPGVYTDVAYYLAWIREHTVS

[7] = A cytotoxicity screen of small molecule inhibitors of the PhoP region in Salmonella typhi identified in the primary screen. [Related pubchem assays: 1850, 1864, 1985 ]; format: functional
[8] = target: Peroxisome proliferator-activated receptor gamma/Nuclear receptor coactivator 1 (Homo sapiens, UniProt P37231); format: functional;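 further: agonist potency as compounds enhance coactivator SRC-1 recruitment to PPARgamma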
[9] = target: Peroxisome proliferator-activated receptor gamma/Nuclear receptor coactivator 2 (Homo sapiens, UniProt P37231); format: functional;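 further: agonist potency for raising coactivator recruitment to the receptor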
[10] = target: Peroxisome proliferator-activated receptor gamma/Nuclear receptor coactivator 3 (Homo sapiens, UniProt P37231); format: functional;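 further: agonist potency for raising coactivator recruitment to the receptor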
[11] = target: T3, Polyadenylate-binding protein 1 (Homo sapiens, UniProt P11940); assay: MLLE domain peptide-binding blockers, IC50 – biochemical, fluorescence polarization, FITC-PAM2 peptide, dose response (AID 602259); format: functional; settings: read-out: IC50_Mean
[12] = target: T3, Polyadenylate-binding protein 1; assay: MLLE binding blockers, Cy5 peptide tracer – biochemical, fluorescence polarization, Cy5-PAM2 peptide, secondary, miRNA deadenylation inhibitor project, dose response (AID 602260); format: functional; settings: read-out: IC50_Mean
[13] = target: T4, Voltage-gated N-type calcium channel alpha-1B subunit/Amyloid beta A4 precursor protein-binding family A member 1 (Homo sapiens, UniProt Q00975+Q02410); format: protein assay
[14] = target: T4, Voltage-gated N-type calcium channel alpha-1B subunit/Amyloid beta A4 precursor protein-binding family A member 1; format: protein assay; remark: listed apart in the source
[15] = target: T5, Ubiquitin-conjugating enzyme E2 N (Homo sapiens, UniProt P61088); format: functional;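 further: Dose-response confirmation in a TR-FRET assay detecting UBC13-driven polyubiquitin chain formation, inhibition measured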
T5 sequence (P61088 whole entry): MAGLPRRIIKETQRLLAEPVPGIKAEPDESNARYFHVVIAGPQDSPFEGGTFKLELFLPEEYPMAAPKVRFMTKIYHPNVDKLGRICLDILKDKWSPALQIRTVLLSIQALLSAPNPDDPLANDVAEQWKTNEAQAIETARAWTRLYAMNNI

[16] = target: Glucose-6-phosphate 1-dehydrogenase (Homo sapiens, UniProt P11413); assay: inhibition of Homo sapiens G6PD, dose series – biochemical, fluorescence, selectivity assay for P. falciparum G6PD inhibitor project, dose response (AID 504792); format: functional
[17] = target: DNA dC->dU-editing enzyme APOBEC-3A (Homo sapiens, UniProt P31941); assay: A3A deaminase inhibition for selectivity – biochemical, dose response (AID 504722); format: functional
[18] = target: DNA dC->dU-editing enzyme APOBEC-3G (Homo sapiens, UniProt Q9HC16); assay: Dose Response confirmation of small molecule APOBEC3G DNA Deaminase Inhibitors via a fluorescence-based single-stranded DNA deaminase assay. [Related pubchem assays (depositor defined):AID493012, AID493028]; format: functional
[19] = target: T6, Hexokinase (Trypanosoma brucei, UniProt Q38C41); assay: Confirmation assay for inhibitors of Trypanosoma brucei hexokinase 1-Analogue-first series. [Related pubchem assays (depositor defined):AID1430, AID1632, AID2516, AID2560, AID2579, AID2600, AID449725, AID492951]; format: functional
T6 sequence (Q38C41 whole entry): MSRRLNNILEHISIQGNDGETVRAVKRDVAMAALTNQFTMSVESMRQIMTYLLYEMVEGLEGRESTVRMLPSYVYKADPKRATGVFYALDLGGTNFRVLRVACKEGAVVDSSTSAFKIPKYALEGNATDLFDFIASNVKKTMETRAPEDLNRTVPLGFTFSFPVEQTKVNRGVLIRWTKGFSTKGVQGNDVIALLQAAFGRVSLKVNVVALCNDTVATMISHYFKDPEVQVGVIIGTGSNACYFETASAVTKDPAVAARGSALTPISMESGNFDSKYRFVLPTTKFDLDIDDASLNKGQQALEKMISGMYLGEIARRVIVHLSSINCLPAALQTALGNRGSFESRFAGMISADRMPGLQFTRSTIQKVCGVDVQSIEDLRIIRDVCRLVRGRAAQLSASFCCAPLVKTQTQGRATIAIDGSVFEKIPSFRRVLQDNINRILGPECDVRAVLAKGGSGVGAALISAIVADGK

[20] = system: INS1; assay: INS-1E survival protection against cytokine death – cell-based, luminescence, retest, dose response (AID 449756); format: functional; settings: Rattus norvegicus;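 further: cell death triggered by IL-1 beta plus TNF-alpha plus IFN-gamma mixture; protective hits raise ATP signal compared with cytokine alone wells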
[21] = NIH3T3 cell viability loss – ATP luminescence, mouse fibroblasts, counter-screen, dose response (AID 2010); format: functional, cell-based;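 further: cells exposed to compound for about 90 hours before reading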
[22] = decrease of insulin promoter-GFP reporter – imaging, high-content screening, mouse beta cells (AID 1628); format: functional; settings: MIN6
[23] = Trypanosoma cruzi growth suppression in host cells – NIH3T3 host cells, beta-gal luminescence, confirmation (AID 2044); format: functional, cell-based;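 further: intracellular parasites grown in NIH/3T3 mouse fibroblasts as host cells; luminescent beta-galactosidase reporter signal from transgenic T. cruzi replicating inside host cells; inhibitors lower the luminescence signal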
[24] = Luminescence Cell-Based Dose Retest to Confirm Inhibitors of Cancer Stem Cells. [Related pubchem assays (depositor defined):AID2717, AID2721]; format: functional; settings: Homo sapiens
[25] = MIN6 cell viability loss – mouse insulinoma, cytotoxicity control, dose response (AID 2122); format: functional;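 further: confirmatory high-throughput counterscreen run to flag cytotoxic compounds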

Peroxisome proliferator-activated receptor gamma/Nuclear receptor coactivator 2, sequence (P37231 whole entry): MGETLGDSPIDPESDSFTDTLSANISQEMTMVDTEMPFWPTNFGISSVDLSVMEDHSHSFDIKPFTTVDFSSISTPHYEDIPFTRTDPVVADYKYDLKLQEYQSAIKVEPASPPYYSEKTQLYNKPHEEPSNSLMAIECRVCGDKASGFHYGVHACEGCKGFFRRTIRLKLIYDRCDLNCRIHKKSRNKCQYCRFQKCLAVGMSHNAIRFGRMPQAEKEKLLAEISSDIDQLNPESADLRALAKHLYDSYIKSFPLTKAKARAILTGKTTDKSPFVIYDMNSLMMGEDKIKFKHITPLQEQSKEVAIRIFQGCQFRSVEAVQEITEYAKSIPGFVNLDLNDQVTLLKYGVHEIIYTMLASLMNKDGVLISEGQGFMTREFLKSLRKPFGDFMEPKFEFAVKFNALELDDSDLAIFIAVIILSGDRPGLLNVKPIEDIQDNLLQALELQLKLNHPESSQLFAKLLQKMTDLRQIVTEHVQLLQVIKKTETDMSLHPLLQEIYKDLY
Peroxisome proliferator-activated receptor gamma/Nuclear receptor coactivator 2, sequence (Q15596 whole entry, further chain): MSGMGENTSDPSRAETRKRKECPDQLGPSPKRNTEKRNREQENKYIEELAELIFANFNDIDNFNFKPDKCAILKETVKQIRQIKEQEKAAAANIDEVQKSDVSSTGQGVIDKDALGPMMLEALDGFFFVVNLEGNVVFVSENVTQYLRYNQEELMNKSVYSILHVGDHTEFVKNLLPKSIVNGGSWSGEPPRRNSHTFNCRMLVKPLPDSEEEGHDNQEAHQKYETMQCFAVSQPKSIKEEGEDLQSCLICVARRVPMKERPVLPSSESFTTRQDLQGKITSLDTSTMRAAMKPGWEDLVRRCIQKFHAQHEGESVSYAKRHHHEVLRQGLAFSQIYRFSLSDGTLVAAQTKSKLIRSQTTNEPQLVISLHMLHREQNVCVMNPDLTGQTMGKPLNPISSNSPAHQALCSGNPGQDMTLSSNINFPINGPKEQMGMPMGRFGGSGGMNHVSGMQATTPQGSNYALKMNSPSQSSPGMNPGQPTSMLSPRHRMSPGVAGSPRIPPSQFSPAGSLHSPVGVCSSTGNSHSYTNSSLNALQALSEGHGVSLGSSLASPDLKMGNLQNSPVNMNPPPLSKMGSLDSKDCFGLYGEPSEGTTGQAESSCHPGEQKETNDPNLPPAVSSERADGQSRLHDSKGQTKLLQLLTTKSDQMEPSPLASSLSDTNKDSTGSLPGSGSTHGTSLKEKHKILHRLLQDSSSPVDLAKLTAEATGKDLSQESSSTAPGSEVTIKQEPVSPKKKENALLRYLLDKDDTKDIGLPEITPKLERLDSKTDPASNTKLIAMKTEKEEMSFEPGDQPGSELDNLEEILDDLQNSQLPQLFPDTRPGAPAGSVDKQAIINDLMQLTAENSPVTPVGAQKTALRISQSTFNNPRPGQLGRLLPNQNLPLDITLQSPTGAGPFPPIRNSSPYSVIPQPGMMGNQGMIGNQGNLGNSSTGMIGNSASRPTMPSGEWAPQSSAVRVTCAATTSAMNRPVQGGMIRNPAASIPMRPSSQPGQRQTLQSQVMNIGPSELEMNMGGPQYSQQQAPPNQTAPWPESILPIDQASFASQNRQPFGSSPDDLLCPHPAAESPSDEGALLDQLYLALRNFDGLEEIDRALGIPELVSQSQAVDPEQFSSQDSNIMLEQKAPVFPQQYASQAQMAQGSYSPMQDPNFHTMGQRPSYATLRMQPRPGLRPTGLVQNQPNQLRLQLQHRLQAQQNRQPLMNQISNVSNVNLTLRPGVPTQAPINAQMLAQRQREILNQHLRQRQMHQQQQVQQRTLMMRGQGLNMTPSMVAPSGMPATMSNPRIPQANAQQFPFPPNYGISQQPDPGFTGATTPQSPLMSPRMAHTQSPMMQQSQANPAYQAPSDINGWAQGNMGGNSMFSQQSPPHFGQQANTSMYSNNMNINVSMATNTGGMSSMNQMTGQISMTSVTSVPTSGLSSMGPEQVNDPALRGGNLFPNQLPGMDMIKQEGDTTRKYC
Peroxisome proliferator-activated receptor gamma/Nuclear receptor coactivator 1, sequence (P37231 whole entry): as the sequence (P37231 whole entry) above
Peroxisome proliferator-activated receptor gamma/Nuclear receptor coactivator 1, sequence (Q15788 whole entry, further chain): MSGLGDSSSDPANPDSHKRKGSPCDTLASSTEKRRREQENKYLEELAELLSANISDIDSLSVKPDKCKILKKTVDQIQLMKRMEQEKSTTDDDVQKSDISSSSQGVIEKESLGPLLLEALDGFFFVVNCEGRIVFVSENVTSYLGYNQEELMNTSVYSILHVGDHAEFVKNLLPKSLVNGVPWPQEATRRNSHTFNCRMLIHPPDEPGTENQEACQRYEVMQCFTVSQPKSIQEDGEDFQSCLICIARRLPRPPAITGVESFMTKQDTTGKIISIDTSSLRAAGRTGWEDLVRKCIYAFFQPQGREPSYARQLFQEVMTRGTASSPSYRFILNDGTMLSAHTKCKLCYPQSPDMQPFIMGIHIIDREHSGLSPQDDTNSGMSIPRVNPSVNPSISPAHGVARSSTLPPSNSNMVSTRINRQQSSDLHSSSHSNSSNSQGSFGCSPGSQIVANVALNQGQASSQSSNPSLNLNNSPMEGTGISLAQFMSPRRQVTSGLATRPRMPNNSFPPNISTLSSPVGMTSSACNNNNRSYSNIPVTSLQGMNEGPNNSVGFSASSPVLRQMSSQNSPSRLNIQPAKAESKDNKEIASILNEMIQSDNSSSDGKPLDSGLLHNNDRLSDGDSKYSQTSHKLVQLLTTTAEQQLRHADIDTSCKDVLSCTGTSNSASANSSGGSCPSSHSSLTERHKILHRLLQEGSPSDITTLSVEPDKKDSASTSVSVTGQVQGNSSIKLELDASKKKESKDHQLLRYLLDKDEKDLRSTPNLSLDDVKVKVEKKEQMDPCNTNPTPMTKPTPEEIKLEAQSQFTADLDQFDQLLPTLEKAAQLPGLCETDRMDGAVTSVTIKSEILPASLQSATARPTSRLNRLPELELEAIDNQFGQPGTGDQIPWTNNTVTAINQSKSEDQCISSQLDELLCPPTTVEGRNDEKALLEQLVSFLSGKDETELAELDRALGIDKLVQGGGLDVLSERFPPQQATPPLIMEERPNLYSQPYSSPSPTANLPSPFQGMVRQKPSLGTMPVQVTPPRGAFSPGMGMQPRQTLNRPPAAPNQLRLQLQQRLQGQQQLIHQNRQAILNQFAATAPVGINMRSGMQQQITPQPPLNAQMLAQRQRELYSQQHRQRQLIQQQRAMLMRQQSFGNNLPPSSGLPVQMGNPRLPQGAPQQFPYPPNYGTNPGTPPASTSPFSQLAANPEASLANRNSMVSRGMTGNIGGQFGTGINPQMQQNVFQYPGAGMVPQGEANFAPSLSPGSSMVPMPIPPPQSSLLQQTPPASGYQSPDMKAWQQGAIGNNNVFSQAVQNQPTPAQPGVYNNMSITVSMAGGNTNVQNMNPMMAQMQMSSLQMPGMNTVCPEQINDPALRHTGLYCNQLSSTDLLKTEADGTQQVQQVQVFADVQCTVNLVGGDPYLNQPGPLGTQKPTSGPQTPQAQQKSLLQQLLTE
T3 sequence (P11940 whole entry, the tested form may be a part): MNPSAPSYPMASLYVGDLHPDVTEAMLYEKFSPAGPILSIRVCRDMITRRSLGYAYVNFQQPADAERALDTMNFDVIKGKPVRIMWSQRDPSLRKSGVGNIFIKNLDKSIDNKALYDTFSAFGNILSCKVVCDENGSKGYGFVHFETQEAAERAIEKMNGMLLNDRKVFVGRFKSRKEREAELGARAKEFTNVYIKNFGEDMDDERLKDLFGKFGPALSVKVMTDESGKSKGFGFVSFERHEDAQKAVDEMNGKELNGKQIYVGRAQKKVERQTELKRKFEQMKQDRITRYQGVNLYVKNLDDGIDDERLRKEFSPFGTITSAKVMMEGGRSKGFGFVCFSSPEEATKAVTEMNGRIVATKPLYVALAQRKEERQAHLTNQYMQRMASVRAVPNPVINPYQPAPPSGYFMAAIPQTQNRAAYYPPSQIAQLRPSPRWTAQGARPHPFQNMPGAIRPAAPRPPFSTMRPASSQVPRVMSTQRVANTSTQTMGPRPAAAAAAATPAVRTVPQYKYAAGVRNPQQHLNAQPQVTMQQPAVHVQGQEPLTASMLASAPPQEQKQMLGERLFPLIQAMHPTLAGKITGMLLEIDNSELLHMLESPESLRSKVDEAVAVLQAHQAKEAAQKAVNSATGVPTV
DNA dC->dU-editing enzyme APOBEC-3A, sequence (P31941 whole entry): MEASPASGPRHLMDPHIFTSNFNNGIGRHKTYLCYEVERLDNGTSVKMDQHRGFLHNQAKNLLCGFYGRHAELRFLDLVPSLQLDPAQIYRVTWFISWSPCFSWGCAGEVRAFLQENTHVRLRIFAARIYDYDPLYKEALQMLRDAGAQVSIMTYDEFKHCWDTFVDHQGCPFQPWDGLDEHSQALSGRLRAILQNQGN

For COc1cccc2cc(-c3csc(NC(=O)CCC(=O)NCCCN4CCC(C)CC4)n3)c(=O)oc12, the EC50 [1] was > 150 µM (not active), the EC50 [2] was 11.5 µM (active) and the EC50 [3] was 13.3 µM (active). The EC50 [4] was 12.7 µM (active).

With COc1ccc(-n2c3c(cc(C(=O)NCc4ccco4)c2=O)C(=O)CC(C)(C)C3)cc1 the EC50 [5] was 3.76 µM (active).

In the case of CCCC(C)NC(=O)Cc1ccccc1 (stereo not drawn), the IC50 [6] is reported as > 50 µM (inactive).

With COc1cc(OC)cc(C(=O)Nc2ccc(NC(=O)c3ccco3)c(C)c2)c1 the EC50 [1] was 19.5 µM (active), the EC50 [2] was 9.93 µM (active) and the EC50 [3] was 10.1 µM (active). The EC50 [4] was 15.2 µM (active).

For COC(=O)Cc1ccc(NC(S)=NCc2ccc(Cl)cc2)cc1, the EC50 [7] was > 50 µM (active).

For CCn1cc(/C=C/C(=O)Nc2ccn(Cc3c(F)c(F)c(F)c(F)c3F)n2)cn1, the EC50 [8] was > 79.4 µM (not active), the EC50 [9] was > 79.4 µM (not active) and the EC50 [10] was > 79.4 µM (not active).

For CCCC1(c2ccccc2)NC(=O)N(CC(=O)Nc2cc(S(=O)(=O)N3CCOCC3)ccc2Cl)C1=O (stereo not drawn), the EC50 [7] was > 50 µM (active).

In the case of COc1ccc(OC)c(NC(=O)CSc2nnc(N)s2)c1, the EC50 [8] is reported as > 79.4 µM (not active), the EC50 [9] is reported as > 79.4 µM (not active) and the EC50 [10] is reported as > 79.4 µM (not active).

With COc1cccc(-c2ccc(SCc3ccccn3)nn2)c1 the EC50 [7] was > 50 µM (active).

In the case of N#CC1=C(N)N=C(S)C(C(N)=O)C1c1ccc([N+](=O)[O-])cc1 (stereo not drawn), the IC50 [11] is reported as > 66 µM (inactive), the IC50 [12] is reported as > 66 µM (inactive) and the IC50 [13] is reported as 5.63 µM (active). For the same molecule, the IC50 [14] was > 50 µM (inactive).

In the case of CCCCCCNC(=O)N[C@@H](C(=O)NCCC[C@H]1CN2C(=NC[C@@H]2Cc2ccccc2)N1CCc1cccc(OC)c1)C(C)C, the IC50 [15] is reported as > 20 µM (inactive).

For O=C1c2ccccc2C(=O)N1OS(=O)(=O)c1ccccc1, the IC50 [6] was 1.61 µM (active).

In the case of Cc1cc(C)c2c(=O)n(CC(=O)Nc3cccc(F)c3)sc2n1, the IC50 [16] is reported as 22.1 µM (inactive), the IC50 [13] is reported as 8.62 µM (active) and the IC50 [14] is reported as > 50 µM (inactive). For the same molecule, the IC50 [17] was > 100 µM (inactive) and the IC50 [18] was 4.35 µM (active).

In the case of Cc1ccc(C)c2[nH]c(=O)c(CN(Cc3nnnn3C3CCCCC3)CC3CCCO3)cc12 (stereo not drawn), the IC50 [6] is reported as > 50 µM (inactive) and the EC50 [5] is reported as 1.68 µM (active).

In the case of O=C(NNc1cc(Cl)ccc1Cl)c1c(F)cccc1Cl, the IC50 [6] is reported as > 50 µM (inactive).

With COc1ccc(-c2[nH]c3ccccc3c2SCCNC(=O)c2ccccc2)cc1 the EC50 [8] was 39.5 µM (not active), the EC50 [9] was 33.6 µM (not active) and the EC50 [10] was < 79.4 µM (not active).

With CCc1ccc2c(c1)cc(CN(C(=S)Nc1ccc(Cl)cc1)C1CC1)c1nnnn12 the EC50 [8] was 11.5 µM (not active), the EC50 [9] was 8.9 µM (active) and the EC50 [10] was 11.6 µM (not active).

With O=C(Nc1ccncc1)Nc1ccc(Cl)cc1 the EC50 [7] was > 50 µM (active).

For CC(C)(C)c1ccc(C(=O)Nc2cc(Cl)ccc2O)cc1, the IC50 [19] was 25 µM (inactive).

With COc1ccc(C(=O)Nc2cc(I)ccc2C(=O)O)cc1 the IC50 [19] was 14.2 µM (active).

In the case of O=C(Cn1sc2ccccc2c1=O)Nc1ccccc1I, the IC50 [19] is reported as 4.75 µM (active).

With O=C1c2cccc(Br)c2SCN1c1ccccc1 the IC50 [19] was > 25 µM (inactive).

For COCCn1c(SCc2ccc(F)cc2)nc2ccccc2c1=O, the EC50 [5] was 2.37 µM (active).

For NS(=O)(=O)c1ccc(N/N=C/c2cn(-c3ccccc3)nc2-c2cccs2)c([N+](=O)[O-])c1, the EC50 [1] was 6.17 µM (inconclusive), the AC50 [20] was 4.07 µM (active) and the EC50 [21] was 12.4 µM (active). For the same molecule, the IC50 [22] was 1.43 µM (active), the EC50 [23] was 0.846 µM (active) and the AC50 [24] was 1.39 µM (active). For the same molecule, the IC50 [25] was 4.7 µM (active), the EC50 [2] was 8.22 µM (active) and the EC50 [3] was 19.4 µM (active). The EC50 [4] was 4.24 µM (active).

For Cc1nc(N)sc1C(=O)N/N=C/c1ccco1, the IC50 [15] was > 20 µM (inactive).

In the case of CCOc1ccc(C(=O)Nc2ccc(-c3nc4ccccc4[nH]3)cc2)cc1[N+](=O)[O-], the IC50 [13] is reported as 12.2 µM (active) and the IC50 [14] is reported as > 50 µM (inactive).
